According to PubChem BioAssay AID1645862 (Buhrlage Lab, Dana-Farber Cancer Institute and Novartis …, 2021):
The source made the active and inactive calls. How the calls were made is not given here.

Target: Ubiquitin carboxyl-terminal hydrolase 8 (Homo sapiens) (UniProt P40818)
Test: Ubiquitin-specific protease 8 inhibitors, concentration-effect, biochemical, validation of initial actives (AID 1645862);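 further: potency reflects inhibition of USP8 cleavage of a ubiquitin rhodamine substrate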
Details: recombinant USP8 deubiquitinase activity assay

Sequence of Ubiquitin carboxyl-terminal hydrolase 8 (Homo sapiens) (P40818 whole entry, looked up): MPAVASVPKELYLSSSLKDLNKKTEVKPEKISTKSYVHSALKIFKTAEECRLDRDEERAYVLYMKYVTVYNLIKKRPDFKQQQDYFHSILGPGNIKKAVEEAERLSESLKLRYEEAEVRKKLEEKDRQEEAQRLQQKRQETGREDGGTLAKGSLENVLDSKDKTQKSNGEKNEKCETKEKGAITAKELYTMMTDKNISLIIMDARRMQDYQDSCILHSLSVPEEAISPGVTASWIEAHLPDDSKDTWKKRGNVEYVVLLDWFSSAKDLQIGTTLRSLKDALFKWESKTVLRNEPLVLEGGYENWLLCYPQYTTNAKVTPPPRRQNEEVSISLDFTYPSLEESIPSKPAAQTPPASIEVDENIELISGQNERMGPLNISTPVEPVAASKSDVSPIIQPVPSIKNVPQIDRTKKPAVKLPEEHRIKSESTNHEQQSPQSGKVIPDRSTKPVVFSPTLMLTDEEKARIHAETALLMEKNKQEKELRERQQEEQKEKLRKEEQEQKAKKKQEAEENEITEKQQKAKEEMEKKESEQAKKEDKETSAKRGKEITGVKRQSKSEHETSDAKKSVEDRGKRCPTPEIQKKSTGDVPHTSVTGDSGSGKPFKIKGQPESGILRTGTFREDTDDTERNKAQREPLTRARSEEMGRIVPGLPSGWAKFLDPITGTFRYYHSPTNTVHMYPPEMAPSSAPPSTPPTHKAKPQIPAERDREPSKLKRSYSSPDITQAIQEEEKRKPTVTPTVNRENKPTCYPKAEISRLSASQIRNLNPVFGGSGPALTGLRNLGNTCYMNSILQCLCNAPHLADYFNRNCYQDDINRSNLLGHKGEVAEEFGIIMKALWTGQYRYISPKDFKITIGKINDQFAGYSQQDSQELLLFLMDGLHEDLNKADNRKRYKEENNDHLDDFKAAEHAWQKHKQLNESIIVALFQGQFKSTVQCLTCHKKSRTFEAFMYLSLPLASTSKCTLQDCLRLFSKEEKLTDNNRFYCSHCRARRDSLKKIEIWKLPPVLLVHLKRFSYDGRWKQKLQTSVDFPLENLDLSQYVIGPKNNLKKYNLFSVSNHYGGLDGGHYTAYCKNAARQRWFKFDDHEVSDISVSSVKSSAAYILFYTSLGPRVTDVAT

For `COc1ccccc1CNC(=O)Cn1cnc2c(-c3ccccc3)csc2c1=O`, the IC50 was > 40 µM (inactive).
With `CCC/C=C\C#CC/C=C\CCCCCCCC(=O)O` the IC50 was 2.48 µM.
`CS(=O)(=O)NC1CCCN(C(=O)Nc2cccc3ccccc23)C1` (stereo unspecified) was tested, and the IC50 was > 40 µM (inactive).
`Cc1ccc2c(CNCCC3=CCCCC3)c(C(=O)O)n(C)c2c1` was tested, and the IC50 was > 40 µM (inactive).
In the case of `O=C(Nc1cccnc1)C1c2ccccc2C(=O)N(c2ccccc2)C12CCCCC2` (stereo unspecified), the IC50 is reported as > 40 µM (inactive).
For `Cc1ccc(S(=O)(=O)Nc2nc(-c3ccc4c(c3)NC(=O)C(C)O4)c(C)s2)cc1` (stereo unspecified), the IC50 was > 40 µM (inactive).
`COc1ccc(C)cc1NC(=O)C1CC(=O)Nc2nc3ccccc3n21` (stereo unspecified) was tested, and the IC50 was > 40 µM (inactive).
For `COc1cc2c(c(OC)c1OC)-c1ccc(NCCc3cccc(F)c3)c(=O)cc1[C@@H](NC(C)=O)CC2`, the IC50 was > 40 µM (inactive).
`COc1cccc(NC(=O)c2cnc(N3CCCC3)nc2C)c1` was tested, and the IC50 was > 40 µM (inactive).
In the case of `CC(C)c1nnc(NC(=O)C2CC(=O)N(CCc3ccc(F)cc3)C2)s1` (stereo unspecified), the IC50 is reported as > 40 µM (inactive).
For `O=C(CSc1nc2ccccc2[nH]1)Nc1ccc2c(c1)OCCO2`, the IC50 was > 40 µM (inactive).
With `CC(C)CCCCCCCCCCC(=O)N(C)[C@H](CO)C(=O)N[C@H](C)C(=O)NCC(=O)N(C)C1C(=O)N[C@@H](C)C(=O)NC(C(=O)O)Cc2ccc(O)c(c2)-c2cc1ccc2O` (stereo partly specified) the IC50 was > 40 µM (inactive).
`CC(C)n1cc(CN2CCC(C(=O)Nc3cccc(-c4cccc(Cl)c4)c3)CC2)cn1` was tested, and the IC50 was > 40 µM (inactive).
For `Cc1nn(-c2nc3ccccc3o2)c2c1C(c1cccc([N+](=O)[O-])c1)CC(=O)N2` (stereo unspecified), the IC50 was > 40 µM (inactive).
In the case of `COc1cccc(NC(=O)C2C3C=CC4(O3)C2C(=O)N(CCc2ccc(Cl)cc2)C4C(=O)NC2CCCCC2)c1` (stereo unspecified), the IC50 is reported as > 40 µM (inactive).
In the case of `Cc1c(-c2nsc(NC(=O)c3ccc(Cl)cc3)n2)nnn1-c1ccccc1F`, the IC50 is reported as > 40 µM (inactive).
In the case of `Cc1cc(C(F)(F)F)n2nc(C3CCN(C(=O)c4cnn(C)c4C)C3)cc2n1` (stereo unspecified), the IC50 is reported as 23.8 µM.
`O=C(CCn1c(=O)c2ccccc2n(CC(=O)OCc2ccccc2)c1=O)NCc1ccc2c(c1)OCO2` was tested, and the IC50 was > 40 µM (inactive).
`COc1ccc(C(=O)COC(=O)c2cccc(NC(=O)c3ccc(Cl)cc3)c2)cc1` was tested, and the IC50 was > 40 µM (inactive).
With `CSc1nc(NCc2ccccc2)c2sc3nc(N4CCOCC4)c4c(c3c2n1)CC(C)(C)OC4` the IC50 was > 40 µM (inactive).
`Cc1ccccc1NC(=O)Nc1cccc(-c2nnc(-c3ccccc3)o2)c1` was tested, and the IC50 was > 40 µM (inactive).
For `CC(=O)NS(=O)(=O)c1ccc(NC(=O)/C=C/c2cn(-c3ccccc3)nc2-c2ccccc2)cc1`, the IC50 was 29.4 µM.
For `COC(=O)c1ccc(NC(=O)c2ccc(COc3cc(Cl)ccc3Cl)cc2)cc1`, the IC50 was > 40 µM (inactive).
For `Cc1ccc(Nc2nc(Nc3cccc(F)c3)nc3nccnc23)c(C)c1`, the IC50 was > 40 µM (inactive).
`COc1cc2c(=O)n(CCC(=O)NC3CCCC3)c(=O)n(CC(=O)Nc3cccc(Cl)c3)c2cc1OC` was tested, and the IC50 was > 40 µM (inactive).
In the case of `CC1=C(C)C(N(c2ccccc2)c2ccccc2)N(CCC(C)C)C1=O` (stereo unspecified), the IC50 is reported as 37.7 µM.
In the case of `COc1cc2c(=O)n(CC3CCCO3)c(=O)n(CC(=O)c3ccc4c(c3)OCO4)c2cc1OC` (stereo unspecified), the IC50 is reported as > 40 µM (inactive).
`Cn1cc2cccc(NC(=O)c3ccc(F)cc3)c2n1` was tested, and the IC50 was > 40 µM (inactive).
In the case of `Cc1cc(Nc2cccc(Cl)c2)n2nc(-c3cccnc3)nc2n1`, the IC50 is reported as > 40 µM (inactive).
In the case of `O=C(CCc1ccc(F)cc1)N1CCOC(CCc2cc(=O)[nH]cn2)C1` (stereo unspecified), the IC50 is reported as > 40 µM (inactive).
In the case of `COc1ccc(-c2cc3n(c(=N)c2C#N)CCc2cc4c(cc2-3)OCO4)cc1O`, the IC50 is reported as > 40 µM (inactive).
For `CCOc1ccc(S(=O)(=O)Nc2ccc[nH]c2=O)cc1`, the IC50 was > 40 µM (inactive).
`CCOc1ccc2nc(NC(=O)c3ccc4ccccc4n3)sc2c1` was tested, and the IC50 was > 40 µM (inactive).
`N#Cc1ccccc1Cn1c(=O)n(CCCC(=O)NCc2ccc(F)cc2)c(=O)c2ccccc21` was tested, and the IC50 was > 40 µM (inactive).
In the case of `COC(=O)c1ccc2c(=O)n(CCCCCC(=O)NCCC3=CCCCC3)c(=O)[nH]c2c1`, the IC50 is reported as > 40 µM (inactive).
With `CCc1ccc(S(=O)(=O)Nc2ccc(-c3nnc(-c4ccccc4)o3)cc2)cc1` the IC50 was > 40 µM (inactive).
With `Cc1ccc2[nH]c(=O)c(CN(CC3COCCO3)S(=O)(=O)c3ccc(F)cc3)cc2c1` (stereo unspecified) the IC50 was > 40 µM (inactive).
With `CCCCCCCc1cc(OC(=O)c2c(CCCCCCC)cc(O)cc2O[C@@H]2O[C@H](CO)[C@@H](O)[C@H](O)[C@H]2O)cc(O)c1C(=O)O` the IC50 was 8.09 µM.
For `COc1ccc2cc(C(=O)N3CCC(C(C)C(=O)NCc4cccc(F)c4)CC3)[nH]c2c1` (stereo unspecified), the IC50 was > 40 µM (inactive).
`COc1cccc2c1NC(=O)C21CCN(C(=O)Nc2cccc3ccccc23)CC1` was tested, and the IC50 was > 40 µM (inactive).
In the case of `CCn1cc2c(n1)c(=O)n(Cc1ccc(C)cc1)c(=O)n2CC(=O)Nc1ccc(F)cc1`, the IC50 is reported as > 40 µM (inactive).
Work on `Cc1ccc(S(=O)(=O)Nc2ccccc2C(=O)Nc2nc3ccc(Br)cc3s2)cc1` yielded an IC50 of 18.9 µM.
`COc1ccc(C)cc1NC(=O)Nc1nnc(CC(=O)NCc2ccccc2)s1` was tested, and the IC50 was > 40 µM (inactive).
`COc1ccc(C(=O)Nc2nc(-c3ccc4c(c3)NC(=O)CO4)c(C)s2)cc1OC` was tested, and the IC50 was > 40 µM (inactive).
In the case of `COC(=O)c1ccc(C(=O)Nc2cc3ccccc3cc2NC(=O)c2ccc(C(=O)OC)cc2)cc1`, the IC50 is reported as > 40 µM (inactive).
`NC(=O)C[C@H](NC(=O)[C@H](Cc1ccccc1)n1c(=O)[nH]c2ccccc2c1=O)C(=O)N[C@@H](Cc1ccccc1)C(=O)O` was tested, and the IC50 was > 40 µM (inactive).
For `CCOc1ccc(CCNC(=O)Cn2c(-c3ccc(F)cc3)cc(C(C)=O)c2C)cc1OCC`, the IC50 was > 40 µM (inactive).
With `Cc1cc(CN2CCCCC2c2cc(=O)n3ccnc3[nH]2)no1` (stereo unspecified) the IC50 was > 40 µM (inactive).
For `O=C(O)C1C(C(=O)Nc2ccccc2)C2(c3ccccc3)C(=O)C1(c1ccccc1)C(c1ccccc1)=C2c1ccccc1` (stereo unspecified), the IC50 was 15.4 µM.
For `CS(=O)(=O)c1cccc(C(=O)Nc2sc3c(c2C(N)=O)CCCC3)c1`, the IC50 was > 40 µM (inactive).
In the case of `COc1cc2c(oc(=O)c3cc(C)cc(OC)c32)c2c([C@@H]3OC(C)[C@@H](O)[C@@](C)(O)C3O)ccc(O)c12` (stereo partly specified), the IC50 is reported as > 40 µM (inactive).
In the case of `COc1cc(Cl)c(NC(=O)C2Cc3ccccc3N2C(=O)c2ccccc2)c(OC)c1` (stereo unspecified), the IC50 is reported as > 40 µM (inactive).
`c1ccc2sc(-c3csc(-c4ccc5c(c4)OCCO5)n3)nc2c1` was tested, and the IC50 was > 40 µM (inactive).
`CCOc1ccc2c(c1)c(=O)c(C(=O)c1ccc(F)cc1)cn2CC(=O)Nc1ccccc1` was tested, and the IC50 was > 40 µM (inactive).
`O=C(CCCn1c(=O)c2sccc2n(CC(=O)NCCC2=CCCCC2)c1=O)NCc1ccc2c(c1)OCO2` was tested, and the IC50 was > 40 µM (inactive).
`CC1Oc2cc3c(-c4c(O)cc(O)c5c(O)c6c(cc45)OC(C)C(C)C6=O)c(O)cc(O)c3c(O)c2C(=O)C1C` (stereo unspecified) was tested, and the IC50 was > 40 µM (inactive).
In the case of `CCc1cccc(C)c1NC(=O)Cn1c(C(C)NC(=O)c2ccc(C)cc2)nc2ccccc21` (stereo unspecified), the IC50 is reported as > 40 µM (inactive).
In the case of `N#C/C(=C\c1ccccc1F)c1nnc(N)s1`, the IC50 is reported as > 40 µM (inactive).
For `O=C(Nc1cccc(-c2nc3ncccc3o2)c1)c1ccc([N+](=O)[O-])cc1`, the IC50 was > 40 µM (inactive).
In the case of `Cc1ccc(Cn2cc(-c3noc(C(=O)Nc4cc(F)ccc4F)n3)nn2)cc1`, the IC50 is reported as 21.8 µM.
In the case of `CCOc1ccc(-n2c(=O)c3sccc3n(CC(=O)Nc3cccc(C)c3)c2=O)cc1`, the IC50 is reported as > 40 µM (inactive).
For `O=c1[nH]c(C2CCN(S(=O)(=O)c3ccc(S(=O)(=O)NC4CCCC4)cc3)CC2)nc2c1nnn2Cc1cccc(Cl)c1`, the IC50 was > 40 µM (inactive).
With `O=C(Nc1ccc2c(c1)OCCO2)C1CCC(Cn2cnc3ccccc3c2=O)CC1` (stereo unspecified) the IC50 was > 40 µM (inactive).
In the case of `CCN(CC)C(=O)c1sc(NC(=O)c2cc(-c3ccccc3Cl)nc3ccccc23)c(C(N)=O)c1C`, the IC50 is reported as > 40 µM (inactive).
For `COc1ccccc1C(=O)Nc1ccc(-c2nc3ccccc3o2)c(O)c1`, the IC50 was > 40 µM (inactive).
`Brc1ccc(Nc2nc(-c3ccccn3)nc3ccccc23)cc1` was tested, and the IC50 was 16.6 µM.
`COc1ccc2c(c1)c(CC(=O)Nc1ccc(N3CCOCC3)cc1)c(C)n2C(=O)c1ccc(Cl)cc1` was tested, and the IC50 was > 40 µM (inactive).
In the case of `O=C(Cn1c(=O)n(Cc2ccc(C(=O)NC3CCCC3)cc2)c(=O)c2ccccc21)c1ccc(Cl)c(Cl)c1`, the IC50 is reported as > 40 µM (inactive).
`O=C(NCc1ccco1)c1ccc(Cn2c(SCc3ccccc3)nc3ccncc32)cc1` was tested, and the IC50 was > 40 µM (inactive).
Work on `CN(C)[C@@H]1C(=O)C(C(N)=O)=C(O)[C@@]2(O)C(=O)C3=C(O)c4c(O)cccc4[C@@](C)(O)C3[C@H](O)[C@@H]12` (stereo partly specified) yielded an IC50 of 0.702 µM.
In the case of `COc1ccc(C2(c3nnc(C(C)Oc4ccc(F)cc4)o3)CCOCC2)cc1` (stereo unspecified), the IC50 is reported as > 40 µM (inactive).
`Cc1c(C#N)c2ccccc2n1CC(=O)NCc1ccc2c(c1)OCO2` was tested, and the IC50 was > 40 µM (inactive).
`Cc1ccnc(Nc2nc(-c3ccccc3)c3cc(Cl)ccc3n2)n1` was tested, and the IC50 was > 40 µM (inactive).
`COc1ccccc1NC(=O)Cn1cc(C(=O)c2ccc(C)cc2)c(=O)c2cc(Cl)ccc21` was tested, and the IC50 was > 40 µM (inactive).
In the case of `CCOc1ccc(-c2ccc3nnc(SCC(=O)Nc4ccc(F)cc4)n3n2)cc1`, the IC50 is reported as > 40 µM (inactive).
For `O=c1[nH]c(C2CCN(S(=O)(=O)c3ccc(S(=O)(=O)NC4CC4)cc3)CC2)nc2c1nnn2Cc1c(Cl)cccc1Cl`, the IC50 was > 40 µM (inactive).
In the case of `COc1ccc(NC(=O)Cn2c(C)cc(=O)n3nc(-c4cccc(C)c4)nc23)cc1`, the IC50 is reported as > 40 µM (inactive).
For `COc1ccccc1Nc1ncc(C(=O)NCc2ccc(F)cc2)c2ccccc12`, the IC50 was > 40 µM (inactive).
`CCn1cc2c(n1)c(=O)n(Cc1ccccc1)c(=O)n2CC(=O)Nc1ccc(OC)cc1` was tested, and the IC50 was > 40 µM (inactive).
`O=C(c1ccc(Cl)cc1)N(c1ccccn1)C1CCCCC1` was tested, and the IC50 was > 40 µM (inactive).
In the case of `CCc1cc(=O)oc2c(C)c(OCC(=O)NCc3ccccn3)ccc12`, the IC50 is reported as > 40 µM (inactive).
`COc1cccc(CNc2ccc(-c3nc(-c4ccccc4)no3)nn2)c1` was tested, and the IC50 was > 40 µM (inactive).
In the case of `O=C(CCCCn1c(=O)[nH]c2ccccc2c1=O)Nc1cccc(Cl)c1`, the IC50 is reported as > 40 µM (inactive).
For `COc1ccc(-c2noc(CC(=O)Nc3cccc(OC)c3)n2)cc1`, the IC50 was > 40 µM (inactive).
In the case of `CNC(=O)c1c2n(c3ncccc13)CCN(S(=O)(=O)c1ccc(-c3ccccc3)cc1)C2`, the IC50 is reported as > 40 µM (inactive).
For `CCCc1ccc(C(=O)[C@@H]2[C@@H](C(=O)c3cccs3)N3c4ccc(C)cc4C(C)=C[C@@H]3[C@@]23C(=O)Nc2ccccc23)cc1`, the IC50 was > 40 µM (inactive).
